What is called Cmax is the maximum level reached in the sampled fluid or tissue.

Like-named read-outs stand apart in the source and are kept apart here.

The text below walks through data of patent US11926645B2, “Compounds and methods for treatment of viral infections” (priority 2020, dated 2024).

One series relates to RSV strain A2. In words: RSV antiviral assay (Hep2), EC50-Hep2/B1-384. As to conditions: human respiratory syncytial virus, HEp-2, 96 h; Hep2 cells, 4 days, Cell-Titer Glo. Format: cell-based.
The next series concerns SARS-CoV-2-Nluc viruses. Description: microbe, parasite or virus in culture. Format: cell-based.
The nature of series [1]: in vitro. Format: cell-based. The following applies: human. On the procedure:
The cytotoxicity of compounds was determined in A549-hACE2 cells in the following manner. Compounds (200 nL) were spotted onto 384-well Grenier plates prior to seeding 5000 A549-hACE2 cells/well in a volume of 40 μL culture medium. The plates were incubated at 37° C. for 48 hours with 5% CO2. On day 2, 40 μL of CellTiter-Glo (Promega) was added and mixed 5 times.

The test system of series [2] is RSV-Fluc (Respiratory Syncytial virus strain A2 containing the firefly luciferase reporter). Description: microbe, parasite or virus in culture. Format: cell-based. The following applies: human respiratory syncytial virus, 72 h, NHBE cells, three days.
Series [3] is classed as in vivo, Sprague-Dawley rats. The following applies: male Sprague-Dawley rats, oral NHC 10 mg/kg. On the procedure: β-d-N^4-hydroxycytidine (NHC) was dosed orally by gavage to male Sprague-Dawley rats (n=3) at 10 mg/kg in 3.9% citric acid and 96.1% water, pH 2.8; Molnupiravir at 12.7 mg/kg in 2.5% kolliphor RH 40, 10% polyethylene glycol 300 and 87.5% water, pH 5.3. […]

A short description of series [4]: in vitro. Format: in vitro ADME, Human. The following applies: 2 μM substrate, 1.0 mg/mL protein, pH 7.4. On the procedure: Duplicate aliquots of test compound or positive control substrate (GS-7340) were added to S9 stock diluted with 100 mM phosphate buffered saline, pH 7.4, to obtain a protein concentration of 1.0 mg/mL. The S9 metabolic reactions were initiated by the addition of the substrates to the S9 reaction mixture to a final concentration of 2 μM. At 0, 10, 20, 30, 60 and 120 min, 25 μL aliquots of the reaction mixture were transferred to plates containing 225 μl of IS/Q solution. After quenching, the plates were centrifuged at 3000×g for 30 minutes, and 150 μL aliquots of each supernatant were diluted with 150 μL water. Aliquots (10 μL) of the diluted supernatant were analyzed on a Thermo Q-Exactive mass spectrometer as described below.
Quantification of test compounds and controls was performed by analyte/internal standard peak area ratio (PAR) values measured on a Thermo Q-Exactive mass spectrometer coupled to a Dionex UltiMate 3000 HPLC with a Leap Technologies HTC PAL autosampler. The column used was a Thermo Hypersil GOLD (1.9 μm particle size, 2.1×50 mm). Mobile phase A consisted of 0.1% (v/v) formic acid in water. Mobile phase B consisted of 0.1% (v/v) formic acid in acetonitrile. Elution of analytes was achieved by a series of linear gradients of acetonitrile in water containing 0.1% (v/v) formic acid. The mass spectrometer was calibrated on a weekly basis and mass tolerance of 5 ppm was used.

Series [5] is described as follows: in vitro. The following applies: African green monkey.
Series [6] is described as follows: in vitro. As to conditions: hamster.
Series [7] in a line: in vitro. As to conditions: human, PrestoBlue.
Setting [8] is: Severe acute respiratory syndrome coronavirus 2, 48 h, read-out: SARS-CoV2 EC50.

With `Cc1ccc(C(=O)OC[C@H]2O[C@@](C#N)(c3ccc4c(N)ncnn34)[C@H](O)[C@@H]2O)cc1` [Compound 23, ((2R,3S,4R,5R)-5-(4-aminopyrrolo[2,1-f][1,2,4]triazin-7-yl)-5-cyano-3,4-dihydroxytetrahydrofuran-2-yl)methyl 4-methylbenzoate], the EC50 worked out at 0.197 µM in the series with RSV strain A2, 1.09 µM in the series with SARS-CoV-2-Nluc viruses (setting [8]) and 0.249 µM in series [2]. The same compound came in with a CC50 at 48 h in “in vitro [1]” of over 10 µM.
For `N#C[C@@]1(c2ccc3c(N)ncnn23)O[C@H](COC(=O)C2CC3CCCC3C2)[C@@H](O)[C@H]1O` (stereo partly drawn) [Compound 24, ((2R,3S,4R,5R)-5-(4-aminopyrrolo[2,1-f][1,2,4]triazin-7-yl)-5-cyano-3,4-dihydroxytetrahydrofuran-2-yl)methyl octahydropentalene-2-carboxylate], in that order: 0.185 µM, 0.8 µM, 0.801 µM and over 10 µM.
In the same order, the values of `CCCC(=O)OC[C@H]1O[C@@](C#N)(c2ccc3c(N)ncnn23)[C@H](O)[C@@H]1O` [Compound 25, ((2R,3S,4R,5R)-5-(4-aminopyrrolo[2,1-f][1,2,4]triazin-7-yl)-5-cyano-3,4-dihydroxytetrahydrofuran-2-yl)methyl butyrate] are 0.225 µM, 1.22 µM, 0.601 µM and over 10 µM.
As for `N#C[C@@]1(c2ccc3c(N)ncnn23)O[C@H](COC(=O)C2CCC2)[C@@H](O)[C@H]1O` [Compound 26, ((2R,3S,4R,5R)-5-(4-aminopyrrolo[2,1-f][1,2,4]triazin-7-yl)-5-cyano-3,4-dihydroxytetrahydrofuran-2-yl)methyl cyclobutanecarboxylate], the EC50 in the series on RSV strain A2 came out at 0.337 µM; with SARS-CoV-2-Nluc viruses (setting [8]), 1.19 µM; in series [2] it was 1.08 µM. Besides, the CC50 at 48 h in the series “in vitro [1]” was over 10 µM.
For `N#C[C@@]1(c2ccc3c(N)ncnn23)O[C@H](COC(=O)C2CC3(CCC3)C2)[C@@H](O)[C@H]1O` [Compound 27, ((2R,3S,4R,5R)-5-(4-aminopyrrolo[2,1-f][1,2,4]triazin-7-yl)-5-cyano-3,4-dihydroxytetrahydrofuran-2-yl)methyl spiro[3.3]heptane-2-carboxylate], in that order: 0.243 µM, 0.56 µM, 1.49 µM and over 10 µM.
In the case of `N#C[C@@]1(c2ccc3c(N)ncnn23)O[C@H](COC(=O)C2CCCC2)[C@@H](O)[C@H]1O` [Compound 28, ((2R,3S,4R,5R)-5-(4-aminopyrrolo[2,1-f][1,2,4]triazin-7-yl)-5-cyano-3,4-dihydroxytetrahydrofuran-2-yl)methyl cyclopentanecarboxylate], the EC50 in the series on RSV strain A2 was 0.268 µM; with SARS-CoV-2-Nluc viruses (setting [8]), 0.43 µM; in series [2] it was 1.8 µM. In addition, the CC50 at 48 h in the series “in vitro [1]” was determined as 40 µM.
For `N#C[C@@]1(c2ccc3c(N)ncnn23)O[C@H](COC(=O)C2CCCCCC2)[C@@H](O)[C@H]1O` [Compound 29, ((2R,3S,4R,5R)-5-(4-aminopyrrolo[2,1-f][1,2,4]triazin-7-yl)-5-cyano-3,4-dihydroxytetrahydrofuran-2-yl)methyl cycloheptanecarboxylate], in that order: 0.194 µM, 0.3 µM, 2.64 µM and 38 µM.
With `CC(=O)OC[C@H]1O[C@@](C#N)(c2ccc3c(N)ncnn23)[C@H](O)[C@@H]1O` [Compound 30, ((2R,3S,4R,5R)-5-(4-aminopyrrolo[2,1-f][1,2,4]triazin-7-yl)-5-cyano-3,4-dihydroxytetrahydrofuran-2-yl)methyl acetate], the EC50 with RSV strain A2 turned out to be 0.643 µM; in the series with SARS-CoV-2-Nluc viruses (setting [8]), 2.32 µM; in series [2], 2.37 µM. The compound also had a CC50 at 48 h in the series “in vitro [1]” of over 50 µM.
In the same order, the values of `CCCCCC(=O)OC[C@H]1O[C@@](C#N)(c2ccc3c(N)ncnn23)[C@H](O)[C@@H]1O` [Compound 31, ((2R,3S,4R,5R)-5-(4-aminopyrrolo[2,1-f][1,2,4]triazin-7-yl)-5-cyano-3,4-dihydroxytetrahydrofuran-2-yl)methyl hexanoate] are 0.198 µM, 0.32 µM, 2.74 µM and 24 µM.
On to `CC(C)(C)C(=O)OC[C@H]1O[C@@](C#N)(c2ccc3c(N)ncnn23)[C@H](O)[C@@H]1O` [Compound 32, ((2R,3S,4R,5R)-5-(4-aminopyrrolo[2,1-f][1,2,4]triazin-7-yl)-5-cyano-3,4-dihydroxytetrahydrofuran-2-yl)methyl pivalate], for which the EC50 in the series on RSV strain A2 is 0.59 µM; with SARS-CoV-2-Nluc viruses (setting [8]), 2.32 µM; in [2], 0.581 µM. The compound further registered a CC50 at 48 h in the series “in vitro [1]” of over 50 µM.
As for `O=c1nc(NO)ccn1[C@@H]1O[C@H](CO)[C@@H](O)[C@H]1O` [NHC, β-d-N^4-hydroxycytidine], in series [3] (plasma), the “NHC AUCinf.” value worked out at 8.48 µM·h. For the same compound, the maximum concentration (Cmax) in series [3] (plasma, read-out: NHC Cmax) worked out at 3.13 µM. Besides, in series [3], the “NHC F % (based on NHC mg-eq dose)” value came to 37.0%. Further, in the series “in vitro [4]”, the “Human GI S9 T1/2” value was over 11.7 h.
Consider `CCC(CC)COC(=O)[C@H](C)N[P@](=O)(OC[C@H]1O[C@@](C#N)(c2ccc3c(N)ncnn23)[C@H](O)[C@@H]1O)Oc1ccccc1` [Remdesivir], for which the EC50 in the series with SARS-CoV-2-Nluc viruses (Severe acute respiratory syndrome coronavirus 2, host cells A549-ACE2, read-out: EC50, WA1/2020-nano luciferase) worked out at 0.067 µM. Besides, the CC50 in “in vitro [1]” (host cells A549-ACE2, read-out: CC50, A549-ACE2) was over 16.7 µM; in the series “in vitro [5]” it was over 100 µM; in “in vitro [6]”, over 100 µM; in “in vitro [7]” (CC50, DF2 HAE, primary diseased (asthma) HAE donor DF2, 72 hours), over 33 µM; in the series “in vitro [7]” (CC50, M2 HAE, primary HAE donor M2, 72 hours) it was 102 µM; in “in vitro [7]” (CC50, M6 HAE, primary HAE donor M6, 72 hours), over 100 µM.
